Data: publication PMC5786788, “Antimicrobial Octapeptin C4 Analogues Active against Cryptococcus Species” (Antimicrobial Agents and Chemotherapy, 2018)
Values after ≈ are worked out from the molar mass of the structure shown. “Also recorded” adds a separate entry of the source. Where a SMILES comes first, the peptide text is derived from it. Bridges are numbered along the chain shown (N, C = ends). [ ]: non-standard residue; d: D form. The star is where a group is joined. Decanoyl(3R-OH) = CCCCCCC[C@@H](O)CC(=O)*; dDab = NCC[C@@H](N)C(=O)O; Dab = NCC[C@H](N)C(=O)O

What was measured:
[1] = tested on: C. neoformans H99
[2] = tested on: C. neoformans H99 (cap59Δ); assay type: cell-based, Cryptococcus neoformans; settings: triplicate
Excerpt: The different susceptibility of C. neoformans and C. gattii to PMB compared to other pathogenic fungi such as C. albicans and A. fumigatus has been postulated to arise from differences in cell surface composition ([38]). One key difference is the presence of a negatively charged polysaccharide capsule in Cryptococcus spp. proposed to concentrate the cationic lipopeptides at the cell surface ([38]). To examine this potential interaction for the octapeptin series, a C. neoformans cap59Δ mutant strain deficient in the secretion of negatively charged glucuronoxylomannan (an α1–3-linked mannan containing β1,2 and β1,4 xylosyl substitutions, as well as β1,2-linked glucuronyl residues) ([41], [42]), was tested against octapeptin C4 in comparison to PMB.
Fungal strains were stored in 15% glycerol at −80°C until use. The fungal strains used were H99 (C. neoformans type strain) ([55]), cap59Δ (an acapsular H99 mutant) ([56]), ATCC 90113 (C. neoformans), MMRL 2651 (C. gattii), ATCC 90028 (Candida albicans), ATCC 90030 (Candida glabrata), ATCC 22019 (Candida parapsilosis), and ATCC MYA 3626 (Aspergillus fumigatus). Yeasts were cultured in liquid (1% yeast extract, 2% Bacto peptone, 2% glucose) or solid (additional 2% agar) yeast extract-peptone-dextrose (YPD) media at 30°C and maintained at 4°C for no longer than 2 weeks. A. fumigatus was prepared on potato dextrose medium at 30°C and maintained at 4°C for no longer than 2 weeks.
The MICs of the yeast strains for PMB, PME, and octapeptin C4 and its derivatives were determined in accordance with CLSI M27-A2 guidelines using YNB (Becton Dickinson, USA) medium supplemented with 10 mM ammonium sulfate and 2% glucose, a final inoculum concentration of 1.5 × 10^3 to 2.0 × 10^3 cells/ml, and incubation at 35°C for 72 h ([39]). […] The MICs for PMB, PME, and octapeptin C4 for A. fumigatus were determined in accordance with the CLSI M38-A2 guidelines ([40]) using synthetic RPMI 1640 medium (with glutamine, without bicarbonate and with phenol red; Life Technologies, USA). The final inoculum concentration was 0.4 × 10^4 to 5 × 10^4 cells/ml, with incubation at 35°C for 48 h. […] All assays were completed in triplicate. Fluconazole was used as a positive control where the MIC was determined at both 50% growth (in accordance with CLSI M27-A2 guidelines) and when there was a “no visible growth” reading.

[3] = tested on: capsule-induced or -suppressed C. neoformans H99 cells; test: In vitro time course assay of capsule influence; assay type: cell-based, Cryptococcus neoformans; settings: H99; PMB at 12.5 μM, octapeptin C4 at 1.56 μM; 0-8 h; two replicates
Method: (A) C. neoformans grown on capsule inducing RPMI 1640 agar medium (without L-glutamine and sodium bicarbonate) with incubation at 37°C in 5% CO2 for 3 days. Scale bar, 20 μm. (B) C. neoformans grown on capsule-suppressing media, YPD containing 1 M NaCl at 30°C in ambient air for 3 days. […] The data represent the means of two replicates, and the error bars represent the standard errors of the mean (SEM).
Capsule induction of strain H99 was achieved as described by Zhai et al. ([37]) with growth on RPMI 1640 (without L-glutamine and sodium bicarbonate) (Sigma, Australia) agar medium and incubation at 37°C in 5% CO2 and capsule suppression by growth on YPD containing 1 M NaCl at 30°C in ambient air. After 3 days, the cells from each culture were collected, washed twice with phosphate-buffered saline (PBS), and resuspended in PBS to avoid changes in the capsule at a density of 1,500 to 2,000 cells/ml. Cell suspensions were treated with test compounds at the determined MIC value. The compounds tested were PMB sulfate, octapeptin C4, and the octapeptin C4 alanine scan derivatives P1L, P1D, P4, P3, P4L, P4D, P5, P6, P7, and P8. At 0, 1, 2, 4, 6, and 8 h after inoculation, samples from each treatment were spread onto a YPD plate, followed by incubation at 30°C for 3 days, at which time the colonies were counted. The assay was repeated in duplicate, and paired sample t tests were performed using GraphPad Prism v7.0 (GraphPad Software, USA).

[4] = tested on: melanized and nonmelanized C. neoformans cells; test: In vitro time course assay of melanization effect; assay type: cell-based, Cryptococcus neoformans; settings: melanin induced on L-DOPA agar vs suppressed on YPD agar; PMB at 12.5 μM, octapeptin C4 at 1.56 μM; 0-8 h; two replicates
Method: (A) Melanin suppressed C. neoformans. (B) Melanin induced C. neoformans. […] Samples from each flask were taken 0, 1, 2, 4, 6, and 8 h after inoculation, spread onto a YPD plate, and incubated at 30°C for 3 days, at which time the colonies were counted. The data represent the means of two replicates, and the error bars represent the SEM.
Melanization was induced by growth on L-DOPA agar medium at 30°C and suppressed by growth on YPD agar medium at 30°C. Cells were grown over 3 days and collected, washed twice in PBS, and then resuspended in PBS at a density of 1,500 to 2,000 cells/ml. Aliquots of the cells were treated with PMB sulfate, octapeptin C4, and the octapeptin C4 derivatives P1L, P1D, P4, P3, P4L, P4D, P5, P6, P7, and P8 at the determined MICs. At 0, 1, 2, 4, 6, and 8 h after inoculation, samples of the suspension were spread onto YPD agar and incubated at 30°C for 3 days, and the colonies were counted. The assay was repeated in duplicate, and paired sample t tests were performed in GraphPad Prism v7.0.

CCCCCCC[C@@H](O)CC(=O)N[C@H](CCN)C(=O)N[C@H]1CCNC(=O)[C@H](CC(C)C)NC(=O)[C@H](CCN)NC(=O)[C@H](CCN)NC(=O)[C@H](CC(C)C)NC(=O)[C@@H](Cc2ccccc2)NC(=O)[C@H](CCN)NC1=O [Octapeptin C4, octapeptin C4] ({Decanoyl(3R-OH)}-[dDab][Dab][Dab][dF]L[Dab][Dab]L; lactam 2-C (inferred); N-terminus assumed)
MIC C. neoformans H99 ([1]; H99, 72 h): 1.56 µg/mL (≈ 1.49 µM) | MICs against various Cryptococcus strains: H99 ([1]; H99, 72 h): 1.56 µg/mL | fold more potent than PMB ([1]; by MIC against C. neoformans): ~8 fold | fold more potent than PME ([1]; by MIC against C. neoformans): > 60 fold | MIC C. neoformans H99 (cap59Δ) ([2]; Table 1, CLSI M27-A2, YNB medium, 35°C, no visible growth after 72 h): 6.25 µg/mL (≈ 5.98 µM) | MICs against various Cryptococcus strains: H99 (cap59Δ) ([2]; Table 2, values consistent across replicates): 6.25 µg/mL | effect of capsule formation on fungicidal activity [3]: retarded the fungicidal activity; also recorded: small but statistically significant increase in survival | effect of melanization on fungicidal activity [4]: slightly enhanced
